Results as given in US20060173064A1, “(-)-1-(3,4-Dichlorophenyl)-3-azabi cyclo[3.1.0]hexane, compositions thereof, and uses for treating alcohol-related disorders” (priority 2001, published 2006).
Marks after values point to notes of the source that are not given here.

Assays:
[1] = target: norepinephrine transporter (norepinephrine uptake site), rat forebrain membranes (Rattus norvegicus, UniProt Q63380); details: Table 2; hydrochloride
Method: The norepinephrine transporter binding assay was performed according to the methods described in Raisman et al., 1982, Eur. J. Pharmacol. 78:345-351 and Langer et al., 1981, Eur. J. Pharmacol. 72:423. […] Reactions were carried out in 50 mM TRIS-HCI (pH 7.4), containing 300 mM NaCl and 50 mM KCl and at 0° C. to 4° C. for four hours. The reaction was terminated by rapid vacuum filtration onto glass fiber filters. Radioactivity trapped in the filters was determined and compared to control values in order to ascertain the interactions of the test compound with the norepinephrine uptake site.

[2] = target: T1, serotonin transporter (serotonin uptake site), human platelet membranes (Homo sapiens, UniProt P31645); test: Serotonin transporter binding assay ([3H]citalopram); details: summary of Table 3; hydrochloride
T1 construct: The receptor source was human platelet membranes; from tissue; host or cells: human platelets (membranes)
Method: Reactions were carried out in 50 mM TRIS-HCl (pH 7.4), containing 120 mM NaCl and 5 mM KCl and at 25° C. for one hour. The reaction was terminated by rapid vacuum filtration onto glass fiber filters. Radioactivity trapped in the filters was determined and compared to control values in order to ascertain the interactions of the test compound with the serotonin uptake site.

[3] = target: hSERT (recombinant human serotonin transporter) (Homo sapiens, UniProt P31645); test: Inhibition of [3H]5-HT uptake in HEK-hSERT cells; details: (−)-enantiomer versus the racemate
[4] = target: T2, dopamine transporter (dopamine uptake site), guinea pig striatal membranes (Cavia porcellus, UniProt H0WCX4); test: Dopamine transporter binding assay ([3H]WIN 35,428); details: summary of Table 1
T2 construct: The receptor source was guinea pig striatal membranes; from tissue; host or cells: guinea pig striatum (membranes)
Method: The dopamine uptake transporter binding assay was performed according to the methods described in Madras et al., 1989, Mol. Pharmacol. 36(4):518-524 and Javitch et al., 1984, Mol. Pharmacol. 26(1):35-44. […] Reactions were carried out in 50 mM TRIS-HCI (pH 7.4), containing 120 mM NaCl and at 0° C. to 4° C. for two hours. The reaction was terminated by rapid vacuum filtration onto glass fiber filters. Radioactivity trapped in the filters was determined and compared to control values in order to ascertain the interactions of the test compound with the dopamine uptake site.

male mHEP rat = test: Volitional consumption of ethanol in the HEP (high ethanol preferring) rat; type: in vivo; details: for Ethanol Consumption, Mean ± s.e.m., pre-: three-day pre-treatment period (baseline); for Ethanol Consumption, Mean ± s.e.m., pre- / Ethanol Consumption, Mean ± s.e.m., during / Ethanol Consumption, Mean ± s.e.m., post-: male mHEP rat; for Ethanol Consumption, Mean ± s.e.m., during: during three days of injections; for Ethanol Consumption, Mean ± s.e.m., post-: three-day post-treatment period
Method: (§1) The study described here was performed using procedures modified from previous reports (Myers R D et al., Genetics of alcoholism: Rapid development of a new high ethanol preferring (HEP) strain of female and male rats, Alcohol 16:343-357, 1998; […] et al., Effects of NMDA glutamate receptor antagonist drugs on the consumption of ethanol by a genetic drinking rat, Brain Res. Bull 64:279-284, 2004). Briefly, subject male rats were taken from the selectively bred Myers' high ethanol preferring (MHEP) line (Myers et al., Alcohol 16:343-357, 1998), which drink copious amounts of ethanol, even in the presence of palatable alternatives. These rats were subjected to an ethanol preference selection protocol, 3% to 30% during a 10-day “step up” procedure that ensures the maximum amount of drinking at each rat's desired ethanol concentration, with the proportion of ethanol to total fluid consumption of approximately 50%. After the rats were selected and drinking a fixed concentration of ethanol, they were subjected to a three-day baseline ethanol consumption period. This was followed by a three-day period of test drug administration (IP), then a three-day post-treatment period. During this entire study, the following parameters were measured on a daily basis: volume of water consumed; volume of ethanol solution consumed; weight of food consumed; and rat body weight. […] Doses were calculated as the free base form of each drug. Once drinking stabilized to baseline levels post-treatment, a different dose of drug was administered. […] The order of drug doses or vehicle (0.9% saline) was set up in a counter-balanced design. The data were averaged for each period for each rat then grouped and analyzed by one-way repeated measures ANOVA and Tukey's post-hoc analysis.

[5] = Body weight of the mHEP rat in the ethanol study; type: in vivo; details: for Bodyweight, Mean ± s.e.m., pre-: three-day pre-treatment period (baseline); for Bodyweight, Mean ± s.e.m., pre- / Bodyweight, Mean ± s.e.m., during / Bodyweight, Mean ± s.e.m., post-: male mHEP rat; for Bodyweight, Mean ± s.e.m., during: during three days of injections; for Bodyweight, Mean ± s.e.m., post-: three-day post-treatment period
Method: as §1

T2 sequence (H0WCX4 1-619): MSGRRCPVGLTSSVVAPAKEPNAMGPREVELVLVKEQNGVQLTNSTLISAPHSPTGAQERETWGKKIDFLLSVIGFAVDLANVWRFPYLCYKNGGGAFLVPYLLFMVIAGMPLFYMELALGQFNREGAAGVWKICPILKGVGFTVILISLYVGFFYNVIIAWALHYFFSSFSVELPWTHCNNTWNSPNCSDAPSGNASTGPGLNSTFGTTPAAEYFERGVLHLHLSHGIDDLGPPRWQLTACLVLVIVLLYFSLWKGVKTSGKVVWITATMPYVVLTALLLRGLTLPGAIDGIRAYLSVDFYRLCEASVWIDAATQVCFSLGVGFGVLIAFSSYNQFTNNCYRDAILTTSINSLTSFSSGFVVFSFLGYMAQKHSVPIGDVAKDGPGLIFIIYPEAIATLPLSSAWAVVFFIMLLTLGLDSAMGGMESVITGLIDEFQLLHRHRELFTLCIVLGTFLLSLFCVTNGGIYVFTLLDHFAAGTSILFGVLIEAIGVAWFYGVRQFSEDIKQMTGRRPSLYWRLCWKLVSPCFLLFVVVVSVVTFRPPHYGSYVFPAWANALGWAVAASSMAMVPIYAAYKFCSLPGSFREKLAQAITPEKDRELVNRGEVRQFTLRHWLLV
norepinephrine transporter (norepinephrine uptake site), rat forebrain membranes, sequence (Q63380 1-617): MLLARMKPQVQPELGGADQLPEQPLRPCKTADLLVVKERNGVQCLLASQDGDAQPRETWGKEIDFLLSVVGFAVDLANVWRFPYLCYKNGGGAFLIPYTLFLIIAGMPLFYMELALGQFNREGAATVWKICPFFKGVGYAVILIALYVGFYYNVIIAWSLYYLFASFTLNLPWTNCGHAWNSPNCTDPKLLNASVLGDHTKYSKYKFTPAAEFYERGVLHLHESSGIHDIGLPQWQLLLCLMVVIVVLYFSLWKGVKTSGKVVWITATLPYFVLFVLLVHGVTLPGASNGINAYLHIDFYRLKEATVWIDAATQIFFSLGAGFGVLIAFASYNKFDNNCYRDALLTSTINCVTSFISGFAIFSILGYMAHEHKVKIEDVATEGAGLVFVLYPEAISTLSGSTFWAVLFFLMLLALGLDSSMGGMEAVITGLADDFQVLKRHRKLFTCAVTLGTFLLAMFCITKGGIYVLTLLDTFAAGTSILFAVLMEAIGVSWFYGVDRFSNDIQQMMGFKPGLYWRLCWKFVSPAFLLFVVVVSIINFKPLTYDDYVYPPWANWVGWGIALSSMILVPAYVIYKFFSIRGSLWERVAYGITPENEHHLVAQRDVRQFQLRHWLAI
T1 sequence (P31645 whole entry): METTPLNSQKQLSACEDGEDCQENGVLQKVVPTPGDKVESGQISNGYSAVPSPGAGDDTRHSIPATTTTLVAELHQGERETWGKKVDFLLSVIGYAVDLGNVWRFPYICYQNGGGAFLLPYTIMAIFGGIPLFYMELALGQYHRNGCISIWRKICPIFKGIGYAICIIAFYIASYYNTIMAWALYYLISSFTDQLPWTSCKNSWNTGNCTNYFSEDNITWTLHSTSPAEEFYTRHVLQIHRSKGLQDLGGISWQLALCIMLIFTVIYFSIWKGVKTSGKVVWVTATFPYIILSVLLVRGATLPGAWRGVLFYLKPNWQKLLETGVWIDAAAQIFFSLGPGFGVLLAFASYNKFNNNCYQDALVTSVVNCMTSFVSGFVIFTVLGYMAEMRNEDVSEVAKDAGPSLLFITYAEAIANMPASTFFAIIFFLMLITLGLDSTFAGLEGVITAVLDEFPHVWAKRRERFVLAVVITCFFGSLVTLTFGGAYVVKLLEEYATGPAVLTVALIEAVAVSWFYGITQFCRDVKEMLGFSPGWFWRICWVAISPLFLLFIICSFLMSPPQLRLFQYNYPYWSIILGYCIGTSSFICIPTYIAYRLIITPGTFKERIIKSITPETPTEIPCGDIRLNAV
hSERT (recombinant human serotonin transporter), sequence (P31645 whole entry): as above

## Cl.Clc1ccc([C@@]23CNC[C@@H]2C3)cc1Cl (single isomer, unassigned) [(+)-1-(3,4-dichlorophenyl)-3-azabicyclo[3.1.0]hexane HCl] [(+)-1-(3,4-dichlorophenyl)-3-azabicyclo[3.1.0]hexane hydrochloride, reference compound]
[1]
  affinity for the norepinephrine uptake site (in words): has affinity
[2]
  affinity for the serotonin uptake site (in words): has affinity

## Cl.Clc1ccc([C@@]23CNC[C@@H]2C3)cc1Cl (single isomer, unassigned) [(−)-1-(3,4-dichlorophenyl)-3-azabicyclo[3.1.0]hexane HCl] [(−)-1-(3,4-dichlorophenyl)-3-azabicyclo[3.1.0]hexane hydrochloride]
[1]
  affinity for the norepinephrine uptake site (in words): no measurable affinity
[2]
  affinity for the serotonin uptake site (in words): no measurable affinity
[3]
  difference in affinity, uptake at the serotonin transporter: 9.6 fold

## Cl.Clc1ccc([C@@]23CNC[C@@H]2C3)cc1Cl (single isomer, unassigned) [(−)-1-(3,4-dichlorophenyl)-3-azabicyclo[3.1.0]hexane hydrochloride]
[4]
  affinity for the dopamine uptake site (in words): have affinity
Male mHEP rat; 2.5 mg/kg b.i.d. IP group
  Ethanol Consumption, Mean ± s.e.m., pre-: 5.39 ± 0.89 g ethanol/kg/day
Male mHEP rat; 2.5 mg/kg b.i.d. IP
  Ethanol Consumption, Mean ± s.e.m., during: 4.32 ± 0.69 g ethanol/kg/day
  Ethanol Consumption, Mean ± s.e.m., post-: 5.79 ± 0.86^a g ethanol/kg/day
Male mHEP rat; 5.0 mg/kg b.i.d. IP group
  Ethanol Consumption, Mean ± s.e.m., pre-: 6.00 ± 0.59 g ethanol/kg/day
Male mHEP rat; 5.0 mg/kg b.i.d. IP
  Ethanol Consumption, Mean ± s.e.m., during: 4.33 ± 0.62 g ethanol/kg/day
  Ethanol Consumption, Mean ± s.e.m., post-: 5.66 ± 0.64 g ethanol/kg/day
Male mHEP rat; 10.0 mg/kg b.i.d. IP group
  Ethanol Consumption, Mean ± s.e.m., pre-: 6.77 ± 0.51 g ethanol/kg/day
Male mHEP rat; 10.0 mg/kg b.i.d. IP
  Ethanol Consumption, Mean ± s.e.m., during: 3.50 ± 0.45 g ethanol/kg/day
  Ethanol Consumption, Mean ± s.e.m., post-: 4.15 ± 0.61 g ethanol/kg/day
Male mHEP rat; 10 mg/kg b.i.d., post-treatment period
  effect on ethanol consumption during the post-treatment period (in words): significant carry over effect
Male mHEP rat; 20.0 mg/kg b.i.d. IP group
  Ethanol Consumption, Mean ± s.e.m., pre-: 5.26 ± 0.49 g ethanol/kg/day
Male mHEP rat; 20.0 mg/kg b.i.d. IP
  Ethanol Consumption, Mean ± s.e.m., during: 1.80 ± 0.28 g ethanol/kg/day
  Ethanol Consumption, Mean ± s.e.m., post-: 2.89 ± 0.45 g ethanol/kg/day
Male mHEP rat; 20 mg/kg b.i.d., after treatment
  decrease in the proportion of alcohol consumed (volume of ethanol / total volume of ethanol solution and water): 41%
Male mHEP rat; 20 mg/kg b.i.d., during treatment
  decrease in the proportion of alcohol consumed (volume of ethanol / total volume of ethanol solution and water): 62.3%
Male mHEP rat; 20 mg/kg b.i.d., post-treatment period
  ethanol consumption depressed compared to the pre-treatment period: 55.1%
Male mHEP rat; 20 mg/kg b.i.d., treatment period
  decrease in ethanol consumption compared to the pre-treatment period: 65.8%
Male mHEP rat; across doses, mHEP rat
  amount of ethanol consumed (in words): strong dose-dependent decrease in consumption
Male mHEP rat; dose range of 5.0 to 20 mg/kg b.i.d.
  volitional consumption of ethanol (in words): significantly reduced
Male mHEP rat; mHEP rat
  proportion of ethanol consumed (in words): strong decrease
[5]; 2.5 mg/kg b.i.d. IP group
  Bodyweight, Mean ± s.e.m., pre-: 0.369 ± 0.019 kg
[5]; 2.5 mg/kg b.i.d. IP
  Bodyweight, Mean ± s.e.m., during: 0.372 ± 0.019 kg
  Bodyweight, Mean ± s.e.m., post-: 0.373 ± 0.019 kg
[5]; 5.0 mg/kg b.i.d. IP group
  Bodyweight, Mean ± s.e.m., pre-: 0.392 ± 0.009 kg
[5]; 5.0 mg/kg b.i.d. IP
  Bodyweight, Mean ± s.e.m., during: 0.394 ± 0.009 kg
  Bodyweight, Mean ± s.e.m., post-: 0.394 ± 0.007 kg
[5]; 10.0 mg/kg b.i.d. IP group
  Bodyweight, Mean ± s.e.m., pre-: 0.381 ± 0.028 kg
[5]; 10.0 mg/kg b.i.d. IP
  Bodyweight, Mean ± s.e.m., during: 0.381 ± 0.028 kg
  Bodyweight, Mean ± s.e.m., post-: 0.382 ± 0.028 kg
[5]; 20.0 mg/kg b.i.d. IP group
  Bodyweight, Mean ± s.e.m., pre-: 0.421 ± 0.015 kg
[5]; 20.0 mg/kg b.i.d. IP
  Bodyweight, Mean ± s.e.m., during: 0.423 ± 0.015 kg
  Bodyweight, Mean ± s.e.m., post-: 0.418 ± 0.015^a kg
[5]; treated rats, as expected for rats of this age
  body weight (in words): small increases in body weight

## Cl.Clc1ccc([C@@]23CNC[C@@H]2C3)cc1Cl (single isomer, unassigned) [(+)-1-(3,4-dichlorophenyl)-3-azabicyclo[3.1.0]hexane hydrochloride, reference compound]
[4]
  affinity for the dopamine uptake site (in words): have affinity
